Here are results for 13 compounds from ChEMBL document CHEMBL1201862, “PubChem BioAssay data set” (2004).

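Interpolation was linear, between the two tested concentrations surrounding the appropriate level; five concentrations were tested over 48 hours in 96-well plates. GI50: concentration for 50% inhibition of growth.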 Active and inactive are the calls of the source. Rule as the data show it: active = GI50 up to about 1.1 µM and inactive = higher.

Among the test systems are A498; A549; HCT-15; HL-60; IGROV-1; K562; LXFL 529; Malme-3M; NCI-H226; SF-539; SK-MEL-2; SK-OV-3; SN12C; TK-10; U-251; UO-31.
Holding throughout (experiment): NCI anticancer screen, dose series, 48 h

Turning to `Cc1c(C(=O)Nc2ccc(Cl)c(C(F)(F)F)c2)oc2cc(O)ccc2/c1=N\NC(N)=S`, the GI50 with A498 is > 100 µM (inactive); in the experiment with A549 it was > 100 µM (inactive); in the experiment on HCT-15, over 100 µM; with HL-60, > 100 µM (inactive); in the experiment on IGROV-1 it was > 100 µM (inactive); in the experiment with K562, > 100 µM (inactive). The GI50 with LXFL 529, with Malme-3M, in the experiment with NCI-H226, with SF-539, with SK-MEL-2 and in the experiment on SK-OV-3 was > 100 µM (inactive) in each case. For the same compound, the GI50 with SN12C, in the experiment on TK-10, in the experiment on U-251 and with UO-31 was > 100 µM (inactive) throughout.

In the case of `CCC1c2cc3n(c(=O)c2COC1O)Cc1c-3nc2ccccc2c1Cl` (centres undefined), the GI50 in the experiment with A498 is 52.6 µM (inactive); in the experiment on A549 it was 28.5 µM (inactive); in the experiment with HCT-15 it was over 94.2 µM; with HL-60, 26.9 µM (inactive); with IGROV-1, > 75.3 µM (inactive); in the experiment with K562 it was 32.2 µM (inactive). Further, the GI50 with LXFL 529 is > 80.7 µM (inactive); in the experiment on Malme-3M, > 100 µM (inactive); in the experiment on NCI-H226, 39.6 µM (inactive); in the experiment on SF-539 it was 22.2 µM (inactive); in the experiment on SK-MEL-2 it was > 100 µM (inactive); with SK-OV-3 it was > 75 µM (inactive). Also, the GI50 in the experiment with SN12C was 10.1 µM (inactive); in the experiment with TK-10, > 100 µM (inactive); in the experiment with U-251, 9.86 µM (inactive); in the experiment with UO-31, 19.4 µM (inactive).

Take `N=C(N)NNC(=O)CCCCCCCC(=O)NNC(=N)N`: the GI50 with A498 was > 100 µM (inactive); with A549 it was > 100 µM (inactive); in the experiment with HCT-15, 17.9 µM; in the experiment on HL-60 it was > 100 µM (inactive); in the experiment on IGROV-1, > 100 µM (inactive); in the experiment on K562, > 100 µM (inactive). Also, the GI50 in the experiment with LXFL 529, in the experiment with Malme-3M, with SF-539, in the experiment on SK-MEL-2, in the experiment with SK-OV-3 and with SN12C was > 100 µM (inactive) in each case. Further, the GI50 in the experiment with TK-10, in the experiment on U-251 and with UO-31 was > 100 µM (inactive) throughout.

For `CCOC(=O)C1=C(C)NC(=O)NC1c1ccc(OC)cc1OC` (centres undefined), the GI50 is > 100 µM (inactive) with A498; > 100 µM (inactive) with A549; over 100 µM with HCT-15; > 100 µM (inactive) with HL-60; > 100 µM (inactive) with IGROV-1; > 100 µM (inactive) in the experiment with K562. Moreover, the GI50 in the experiment on LXFL 529, with Malme-3M, with NCI-H226, with SK-MEL-2, with SK-OV-3 and in the experiment on SN12C was > 100 µM (inactive) each time. The GI50 was > 100 µM (inactive) in the experiment with TK-10, 52.6 µM (inactive) with U-251 and > 100 µM (inactive) in the experiment with UO-31.

Turning to `CCC1=CC2CN3Cn4c(c(COCc5c6n(c7ccccc57)CN5CC7C=C(CC)C5C6(C(=O)OC)C7)c5ccccc54)C(C(=O)OC)(C2)C13`, the GI50 in the experiment with A498 was > 100 µM (inactive); with A549, > 100 µM (inactive); in the experiment with HCT-15, over 100 µM; in the experiment on HL-60, > 100 µM (inactive); with IGROV-1 it was > 100 µM (inactive); in the experiment with K562 it was > 100 µM (inactive). For the same compound, the GI50 in the experiment on LXFL 529 is > 100 µM (inactive); in the experiment on Malme-3M it was > 100 µM (inactive); in the experiment on NCI-H226 it was > 100 µM (inactive); in the experiment with SK-MEL-2 it was > 100 µM (inactive); in the experiment on SK-OV-3 it was 92.5 µM (inactive); in the experiment with SN12C, > 100 µM (inactive). Further, the GI50 in the experiment with TK-10, in the experiment on U-251 and in the experiment on UO-31 was > 100 µM (inactive) each time.

Regarding `O=c1c2cc(Br)ccc2n(C2OC(CO)C(O)C(O)C2O)c(=S)n1-c1ccccc1` (centres undefined), the GI50 is > 100 µM (inactive) with A498; > 100 µM (inactive) with A549; over 100 µM with HCT-15; > 100 µM (inactive) in the experiment on HL-60; > 100 µM (inactive) in the experiment on IGROV-1; > 100 µM (inactive) in the experiment on K562. Besides, the GI50 was 74.3 µM (inactive) in the experiment with LXFL 529; > 100 µM (inactive) in the experiment on Malme-3M; > 100 µM (inactive) in the experiment with NCI-H226; > 100 µM (inactive) with SF-539; > 100 µM (inactive) in the experiment on SK-MEL-2; > 100 µM (inactive) with SN12C. In addition, the GI50 in the experiment on TK-10, in the experiment with U-251 and in the experiment with UO-31 was > 100 µM (inactive) throughout.

For `N=C(N)N/N=C/c1c[nH]c2ccccc12`, the GI50 in the experiment with A549 was > 100 µM (inactive); in the experiment with HCT-15, over 100 µM; in the experiment with HL-60 it was > 100 µM (inactive); in the experiment with IGROV-1, > 100 µM (inactive); in the experiment on K562, > 100 µM (inactive); with LXFL 529, > 100 µM (inactive). Moreover, the GI50 in the experiment on Malme-3M, with NCI-H226, with SF-539, in the experiment with SK-MEL-2, with SK-OV-3 and in the experiment with SN12C was > 100 µM (inactive) in each case. The GI50 in the experiment with TK-10, with U-251 and in the experiment on UO-31 was > 100 µM (inactive) in each case.

On to `CN(C)c1ccc(C(C=C2c3ccccc3Sc3ccccc32)=C(C#N)C#N)cc1`, for which the GI50 in the experiment on A498 is > 100 µM (inactive); with A549, > 100 µM (inactive); in the experiment with HCT-15, over 100 µM; in the experiment on HL-60, > 100 µM (inactive); in the experiment with IGROV-1, > 100 µM (inactive); in the experiment on K562 it was 5.65 µM (inactive). The GI50 was 86.7 µM (inactive) in the experiment on LXFL 529; > 100 µM (inactive) in the experiment with Malme-3M; 77.3 µM (inactive) in the experiment with SF-539; > 100 µM (inactive) with SK-MEL-2; > 100 µM (inactive) in the experiment on SK-OV-3; > 100 µM (inactive) with SN12C. Also, the GI50 is > 100 µM (inactive) in the experiment with TK-10, 37.6 µM (inactive) with U-251 and 82.8 µM (inactive) in the experiment with UO-31.

For `CCCc1c2c([nH]c(=O)c1C)C(=O)c1[nH]c(=O)c(C)c(CCC)c1C2=O`, the GI50 with A498 was > 100 µM (inactive); in the experiment with A549, 23.7 µM (inactive); in the experiment on HCT-15, 11.2 µM; in the experiment on HL-60, 3.65 µM (inactive); in the experiment with IGROV-1, 23.6 µM (inactive); in the experiment on K562 it was 17.4 µM (inactive). In addition, the GI50 in the experiment on LXFL 529 is 63.2 µM (inactive); with Malme-3M it was 3.73 µM (inactive); with NCI-H226, 77.3 µM (inactive); in the experiment on SF-539 it was > 100 µM (inactive); in the experiment on SN12C, 3.64 µM (inactive); in the experiment with TK-10 it was 73.8 µM (inactive). Besides, in the experiment with UO-31, the GI50 was 56.4 µM (inactive).

Turning to `CCC12C=CCN3CC[C@]4(C(=C(C(=O)OC)[C@@H]1Nc1ccn(C5OC(COC(C)=O)C(OC(C)=O)C5OC(C)=O)c(=O)n1)Nc1ccccc14)C32` (some centres undefined), the GI50 in the experiment with A498 was 5.19 µM (inactive); with A549 it was 5.9 µM (inactive); with HCT-15 it was 3.54 µM; in the experiment on HL-60, 4.51 µM (inactive); with IGROV-1, 5.25 µM (inactive); in the experiment with K562, 5.08 µM (inactive). In addition, the GI50 in the experiment on LXFL 529 was 4.42 µM (inactive); with Malme-3M, 4.78 µM (inactive); in the experiment with NCI-H226, 4.47 µM (inactive); with SF-539 it was 5 µM (inactive); in the experiment with SK-MEL-2, 2.39 µM (inactive); in the experiment with SK-OV-3 it was 4.93 µM (inactive). For the same compound, the GI50 in the experiment on SN12C was 4.39 µM (inactive); in the experiment with TK-10, 4.93 µM (inactive); with U-251, 4.27 µM (inactive); with UO-31, 4.23 µM (inactive).

Take `CO[C@H](C(=O)O[C@H]1C(=O)N2CC[C@@H]3CCC[C@H]1C32C)c1ccccc1` (some centres undefined): the GI50 with A549 is > 100 µM (inactive); in the experiment on HCT-15, over 10 µM; in the experiment with HL-60, > 100 µM (inactive); in the experiment on IGROV-1, > 100 µM (inactive); with K562, > 100 µM (inactive); in the experiment on LXFL 529 it was > 100 µM (inactive). Also, the GI50 in the experiment with Malme-3M, with NCI-H226, in the experiment with SF-539, in the experiment with SK-MEL-2, in the experiment with SK-OV-3 and with SN12C was > 100 µM (inactive) each time. Also, the GI50 with U-251 and in the experiment on UO-31 was > 100 µM (inactive) each time.

With `O=C(/C=C/c1ccc[nH]1)c1ccccc1`, the GI50 in the experiment with A549 was > 100 µM (inactive); with HCT-15, over 100 µM; with HL-60, 41.2 µM (inactive); in the experiment on K562, > 100 µM (inactive); with LXFL 529 it was > 100 µM (inactive); in the experiment with Malme-3M it was > 100 µM (inactive). Moreover, the GI50 in the experiment with NCI-H226, in the experiment on SF-539, in the experiment on SK-MEL-2, in the experiment on SK-OV-3, in the experiment on SN12C and in the experiment with TK-10 was > 100 µM (inactive) in each case. The GI50 in the experiment with U-251 and in the experiment on UO-31 was > 100 µM (inactive) throughout.

`Nc1n[n+]([O-])c2ccccc2[n+]1[O-]` [TIRAPAZAMINE]: the GI50 with A549 is 93.5 µM (inactive); in the experiment on HCT-15, over 100 µM; with HL-60, > 100 µM (inactive); in the experiment on IGROV-1, 75.5 µM (inactive); with K562, > 100 µM (inactive); in the experiment with LXFL 529, > 100 µM (inactive). Besides, the GI50 with Malme-3M is 50.4 µM (inactive); in the experiment with NCI-H226 it was > 100 µM (inactive); with SF-539, > 100 µM (inactive); in the experiment with SK-MEL-2 it was > 100 µM (inactive); in the experiment on SK-OV-3, 73.1 µM (inactive); in the experiment with SN12C, > 100 µM (inactive). Also, the GI50 with TK-10, with U-251 and in the experiment on UO-31 was > 100 µM (inactive) in each case.
